Source: patent US10660877B2 (BRISTOL-MYERS SQUIBB COMPANY, priority 2016, dated 2020)
Like-named read-outs stand apart in the source and are kept apart here.

Columns and labels:
human TLR7 = human TLR7 (Homo sapiens (Human), UniProt Q9NYK1); experiment: TLR7 inhibition reporter assay (HEK-Blue cells, SEAP reporter, gardiquimod stimulation); type: cell-based
human TLR8 = human TLR8 (Homo sapiens (Human), UniProt Q9NR97); experiment: TLR8 inhibition reporter assay (HEK-Blue cells, SEAP reporter, R848 stimulation);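 further: compounds tested from 0.05 nM to 50 µM, 22 h at 37 °C, SEAP measured with HEK-Blue Detection, inhibition relative to agonist plus DMSO versus a known inhibitor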
human TLR9 = human TLR9 (Homo sapiens (Human), UniProt Q9NR96); experiment: TLR9 inhibition reporter assay (HEK-Blue cells, SEAP reporter, ODN2006 stimulation);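 further: compounds tested over 0.05 nM to 50 µM, 22 h incubation, inhibition taken as SEAP signal drop from agonist plus DMSO wells toward a known inhibitor control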
[1] = HEK-Blue cells overexpressing human TLR7, gardiquimod 7.5 μM
[2] = read-out: TLR8 IC50, HEK-Blue cells overexpressing human TLR8, R848 15.9 μM
[3] = read-out: TLR9 IC50, HEK-Blue cells overexpressing human TLR9, ODN2006 5 nM
[4] = HEK-Blue cells, gardiquimod 7.5 μM
[5] = read-out: TLR8 IC50, HEK-Blue cells, R848 15.9 μM
[6] = read-out: TLR9 IC50, HEK-Blue cells, ODN2006 5 nM

human TLR7, sequence (Q9NYK1 27-1049): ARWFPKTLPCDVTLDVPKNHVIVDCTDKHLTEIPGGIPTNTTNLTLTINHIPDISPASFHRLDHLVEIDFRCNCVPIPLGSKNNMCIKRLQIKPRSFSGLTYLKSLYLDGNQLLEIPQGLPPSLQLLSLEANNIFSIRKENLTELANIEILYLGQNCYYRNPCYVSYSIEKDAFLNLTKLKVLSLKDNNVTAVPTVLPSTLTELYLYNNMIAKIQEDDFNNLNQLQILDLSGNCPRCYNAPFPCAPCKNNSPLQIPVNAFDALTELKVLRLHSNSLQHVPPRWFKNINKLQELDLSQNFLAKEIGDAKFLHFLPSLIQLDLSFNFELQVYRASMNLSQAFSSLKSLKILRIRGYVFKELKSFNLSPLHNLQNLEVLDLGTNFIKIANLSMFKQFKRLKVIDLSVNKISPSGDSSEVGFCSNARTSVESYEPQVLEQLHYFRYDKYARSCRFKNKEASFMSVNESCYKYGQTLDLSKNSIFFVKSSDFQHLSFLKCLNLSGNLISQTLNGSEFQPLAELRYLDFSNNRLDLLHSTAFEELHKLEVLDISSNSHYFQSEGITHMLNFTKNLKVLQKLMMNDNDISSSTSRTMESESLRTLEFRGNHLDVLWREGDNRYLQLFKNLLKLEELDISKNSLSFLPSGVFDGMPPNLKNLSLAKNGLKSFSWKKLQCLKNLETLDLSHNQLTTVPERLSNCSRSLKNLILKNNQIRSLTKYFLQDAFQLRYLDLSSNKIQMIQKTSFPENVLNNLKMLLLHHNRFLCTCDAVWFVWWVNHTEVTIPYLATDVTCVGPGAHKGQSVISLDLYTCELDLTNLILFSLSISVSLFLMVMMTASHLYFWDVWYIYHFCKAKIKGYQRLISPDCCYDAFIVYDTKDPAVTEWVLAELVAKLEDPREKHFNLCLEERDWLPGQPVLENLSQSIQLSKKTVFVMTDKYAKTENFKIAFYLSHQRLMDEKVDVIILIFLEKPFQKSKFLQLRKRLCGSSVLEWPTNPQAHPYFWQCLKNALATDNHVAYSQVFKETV
human TLR8, sequence (Q9NR97 27-1041): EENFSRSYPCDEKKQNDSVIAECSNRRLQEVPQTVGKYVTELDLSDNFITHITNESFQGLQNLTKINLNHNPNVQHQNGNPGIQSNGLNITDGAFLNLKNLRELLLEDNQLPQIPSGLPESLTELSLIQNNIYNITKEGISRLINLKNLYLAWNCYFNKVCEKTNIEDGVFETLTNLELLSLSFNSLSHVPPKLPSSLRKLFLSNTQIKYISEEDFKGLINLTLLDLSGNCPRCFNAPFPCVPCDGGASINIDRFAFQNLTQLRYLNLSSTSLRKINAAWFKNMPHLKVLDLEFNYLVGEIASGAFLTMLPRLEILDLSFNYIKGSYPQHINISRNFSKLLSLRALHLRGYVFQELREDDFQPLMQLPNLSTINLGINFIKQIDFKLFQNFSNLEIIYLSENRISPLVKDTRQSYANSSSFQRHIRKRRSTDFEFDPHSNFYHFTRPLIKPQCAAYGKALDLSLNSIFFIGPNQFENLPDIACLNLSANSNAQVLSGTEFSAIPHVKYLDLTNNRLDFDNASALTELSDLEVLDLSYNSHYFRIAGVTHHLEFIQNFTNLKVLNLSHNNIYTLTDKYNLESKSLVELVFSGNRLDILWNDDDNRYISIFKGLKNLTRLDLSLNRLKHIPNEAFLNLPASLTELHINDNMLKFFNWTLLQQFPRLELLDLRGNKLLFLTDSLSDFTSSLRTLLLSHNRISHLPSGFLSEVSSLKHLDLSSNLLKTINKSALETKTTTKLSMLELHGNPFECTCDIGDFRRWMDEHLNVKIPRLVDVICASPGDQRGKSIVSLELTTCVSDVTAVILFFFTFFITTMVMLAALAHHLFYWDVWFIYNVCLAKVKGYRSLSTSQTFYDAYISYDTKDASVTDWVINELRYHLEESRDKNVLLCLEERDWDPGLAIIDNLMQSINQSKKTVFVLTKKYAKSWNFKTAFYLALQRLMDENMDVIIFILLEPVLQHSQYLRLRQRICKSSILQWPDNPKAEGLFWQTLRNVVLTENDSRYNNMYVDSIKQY
human TLR9, sequence (Q9NR96 26-1032): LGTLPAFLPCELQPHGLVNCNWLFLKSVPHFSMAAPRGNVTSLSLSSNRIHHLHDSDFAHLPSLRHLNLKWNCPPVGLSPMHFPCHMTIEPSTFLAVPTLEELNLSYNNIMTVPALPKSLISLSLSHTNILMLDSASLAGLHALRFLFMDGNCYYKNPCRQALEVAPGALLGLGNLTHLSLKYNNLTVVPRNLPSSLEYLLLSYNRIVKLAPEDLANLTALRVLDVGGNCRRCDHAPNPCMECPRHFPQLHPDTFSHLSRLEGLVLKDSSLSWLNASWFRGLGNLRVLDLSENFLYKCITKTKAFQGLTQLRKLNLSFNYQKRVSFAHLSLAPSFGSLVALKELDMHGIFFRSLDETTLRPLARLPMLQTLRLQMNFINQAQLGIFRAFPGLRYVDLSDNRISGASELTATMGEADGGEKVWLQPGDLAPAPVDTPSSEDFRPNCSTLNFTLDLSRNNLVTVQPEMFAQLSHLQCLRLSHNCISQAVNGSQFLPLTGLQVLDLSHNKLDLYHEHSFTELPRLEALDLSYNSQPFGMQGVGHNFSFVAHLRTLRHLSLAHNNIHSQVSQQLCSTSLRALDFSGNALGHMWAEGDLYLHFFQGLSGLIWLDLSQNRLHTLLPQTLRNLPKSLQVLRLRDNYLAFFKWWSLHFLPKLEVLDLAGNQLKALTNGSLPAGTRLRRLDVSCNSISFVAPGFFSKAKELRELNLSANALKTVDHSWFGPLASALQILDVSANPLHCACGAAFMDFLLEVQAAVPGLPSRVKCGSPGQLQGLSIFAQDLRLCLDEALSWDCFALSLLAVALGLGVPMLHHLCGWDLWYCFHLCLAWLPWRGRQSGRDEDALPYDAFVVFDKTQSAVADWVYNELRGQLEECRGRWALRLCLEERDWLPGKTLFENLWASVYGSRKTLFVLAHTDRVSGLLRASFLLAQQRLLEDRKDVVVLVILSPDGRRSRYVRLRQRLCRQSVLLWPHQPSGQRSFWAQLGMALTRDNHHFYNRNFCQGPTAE

Row | Compound | IC50 (human TLR7; [1]) [nM] | IC50 (human TLR8; [2]) [nM] | IC50 (human TLR9; [3]) [nM] | IC50 (human TLR8; TLR8 IC50, HEK-Blue cells overexpressing human TLR8, R848 15.9 μM) [nM] | IC50 (human TLR9; TLR9 IC50, HEK-Blue cells overexpressing human TLR9, ODN2006 5 nM) [nM] | IC50 (human TLR7; [4]) [nM] | IC50 (human TLR8; [5]) [nM] | IC50 (human TLR9; [6]) [nM]
1 | Cc1cc(-c2[nH]c3ccc(C4CCN(Cc5ncco5)CC4)cc3c2C(C)C)cc(C)n1 [Example 449, 2-((4-(2-(2,6-dimethylpyridin-4-yl)-3-isopropyl-1H-indol-5-yl)piperidin-1-yl)methyl)oxazole] | 13.5 | 14.3 | 2930 |  |  |  |  | 
2 | Cc1cc(-c2[nH]c3ccc(C4CCN(C(=O)C5CCN(C(C)C)CC5)CC4)cc3c2C(C)C)ccn1 [Example 563, (4-(3-isopropyl-2-(2-methylpyridin-4-yl)-1H-indol-5-yl)piperidin-1-yl)(1-isopropylpiperidin-4-yl)methanone] | 16.5 | 18.9 | 1150 |  |  |  |  | 
3 | CNCCN1CCC(c2ccc3[nH]c(-c4cc(C)nc(C)c4)c(CC(F)F)c3c2)CC1 [Example 541, 2-(4-(3-(2,2-difluoroethyl)-2-(2,6-dimethylpyridin-4-yl)-1H-indol-5-yl)piperidin-1-yl)-N-methylethan-1-amine] | 11.5 | 22.2 | 110 |  |  |  |  | 
4 | Cc1cc(-c2[nH]c3ccc(C4CCN(CC(C)C)CC4)cc3c2C(C)C)c(C)cn1 [Example 666, 2-(2,5-dimethylpyridin-4-yl)-5-(1-isobutylpiperidin-4-yl)-3-isopropyl-1H-indole] | 5.8 | 2.6 | 948 |  |  |  |  | 
5 | Cc1cc(-c2[nH]c3ccc(C4CCN(CC(=O)NCC(C)O)CC4)cc3c2C(C)C)cc(C)n1 (stereo not drawn) [Example 260, 2-(4-(2-(2,6-dimethylpyridin-4-yl)-3-isopropyl-1H-indol-5-yl)piperidin-1-yl)-N-(2-hydroxypropyl) acetamide] | 1.5 | 5.1 | 379 |  |  |  |  | 
6 | COc1nccc(-c2[nH]c3ccc(C4CCN(C5CCN(CC(C)C)CC5)CC4)cc3c2C)c1OC [Example 799, 2-(2,3-dimethoxypyridin-4-yl)-5-(1′-isobutyl-[1,4′-bipiperidin]-4-yl)-3-methyl-1H-indole] | 1670 | 360 | 180 |  |  |  |  | 
7 | Cc1cc(-c2[nH]c3ccc(C4CCN(CC5CCN(C(C)C)CC5)CC4)cc3c2C(C)C)ccn1 [Example 742, 3-isopropyl-5-(1-((1-isopropylpiperidin-4-yl)methyl)piperidin-4-yl)-2-(2-methylpyridin-4-yl)-1H-indole] | 9.2 | 5.5 | 101 |  |  |  |  | 
8 | Cc1cc(-c2[nH]c3ccc(C4CCN(C(=O)C(C)C)CC4)cc3c2C(C)C)ccn1 [Example 602, 1-(4-(3-isopropyl-2-(2-methylpyridin-4-yl)-1H-indol-5-yl)piperidin-1-yl)-2-methylpropan-1-one] | 24.7 | 158 | 32000 |  |  |  |  | 
9 | CCc1c(-c2ccnc(C#N)c2)[nH]c2ccc(C3CCNCC3)cc12 [Example 64, 4-(3-ethyl-5-(piperidin-4-yl)-1H-indol-2-yl)picolinonitrile] | 95.6 | 61.8 | 895 |  |  |  |  | 
10 | CC(C)c1c(-c2ccncc2)[nH]c2ccc(C3CCN(C4CCN(C)CC4)CC3)cc12 [Example 525, 3-isopropyl-5-(1′-methyl-[1,4′-bipiperidin]-4-yl)-2-(pyridin-4-yl)-1H-indole] | 44.3 | 6 | 190 |  |  |  |  | 
11 | Cc1cc(-c2[nH]c3ccc(C4CCN(CC(C)(C)C)CC4)cc3c2C(C)C)cc(C)n1 [Example 470, 2-(2,6-dimethylpyridin-4-yl)-3-isopropyl-5-(1-neopentylpiperidin-4-yl)-1H-indole] | 5.9 | 23.8 | 532 |  |  |  |  | 
12 | Cc1cc(-c2[nH]c3ccc(C4CCN(C(=O)CN5CCCS5(=O)=O)CC4)cc3c2C(C)C)cc(C)n1 [Example 152, 1-(4-(2-(2,6-dimethylpyridin-4-yl)-3-isopropyl-1H-indol-5-yl)piperidin-1-yl)-2-(1,1-dioxidoisothiazolidin-2-yl)ethan-1-one] | 5 | 49.8 | 30400 |  |  |  |  | 
13 | COc1cc(OC)nc(CN2CCC(c3ccc4[nH]c(-c5cc(C)nc(C)c5)c(C(C)C)c4c3)CC2)n1 [Example 447, 5-(1-((4,6-dimethoxypyrimidin-2-yl)methyl)piperidin-4-yl)-2-(2,6-dimethylpyridin-4-yl)-3-isopropyl-1H-indole] | 5.4 | 7 | 446 |  |  |  |  | 
14 | Cc1cc(-c2[nH]c3ccc(C4CCN(CC#N)CC4)cc3c2C(C)C)cc(C)n1 [Example 312, 2-(4-(2-(2,6-dimethylpyridin-4-yl)-3-isopropyl-1H-indol-5-yl)piperidin-1-yl)acetonitrile] | 5.4 | 14 | 1390 |  |  |  |  | 
15 | Cc1cc(-c2[nH]c3ccc(C4CCN(CCCN(C)C)CC4)cc3c2C(C)C)ccn1 [Example 669, 3-(4-(3-isopropyl-2-(2-methylpyridin-4-yl)-1H-indol-5-yl)piperidin-1-yl)-N,N-dimethylpropan-1-amine] | 2.6 | 1.9 | 221 |  |  |  |  | 
16 | Cc1cc(-c2[nH]c3ccc(C4CCN(C(=O)C5CCOC(C(C)C)C5)CC4)cc3c2C(C)C)ccn1 (stereo not drawn) [Example 598, (4-(3-isopropyl-2-(2-methylpyridin-4-yl)-1H-indol-5-yl)piperidin-1-yl)(2-isopropyltetrahydro-2H-pyran-4-yl)methanone] | 99.6 | 374 | 9940 |  |  |  |  | 
17 | Cc1cc(-c2[nH]c3ccc(C4CCN(CC(O)CO)CC4)cc3c2C(C)C)cc(C)n1 (stereo not drawn) [Example 854, 3-(4-(2-(2,6-dimethylpyridin-4-yl)-3-isopropyl-1H-indol-5-yl)piperidin-1-yl) propane-1,2-diol] |  |  |  |  |  | 1 | 1.8 | 159
18 | Cc1cc(-c2[nH]c3cc(C(F)(F)F)c(C4CCN(CC5CCNC5)CC4)cc3c2C(C)C)ccn1 (stereo not drawn) [Example 873, 3-isopropyl-2-(2-methylpyridin-4-yl)-5-(1-(pyrrolidin-3-ylmethyl)piperidin-4-yl)-6-(trifluoromethyl)-1H-indole] |  |  |  |  |  | 13.5 | 467 | 96
19 | Cc1cc(-c2[nH]c3ccc(C4CCN(C(=O)CN(C)CCF)CC4)cc3c2C(C)C)cc(C)n1 [Example 421, 1-(4-(2-(2,6-dimethylpyridin-4-yl)-3-isopropyl-1H-indol-5-yl)piperidin-1-yl)-2-((2-fluoroethyl)(methyl)amino)ethan-1-one] | 5.4 | 25.9 | 656 |  |  |  |  | 

More lines, now with the values ahead:

Row | IC50 (human TLR7; [1]) [nM] | IC50 (human TLR8; [2]) [nM] | IC50 (human TLR9; [3]) [nM] | IC50 (human TLR8; TLR8 IC50, HEK-Blue cells overexpressing human TLR8, R848 15.9 μM) [nM] | IC50 (human TLR9; TLR9 IC50, HEK-Blue cells overexpressing human TLR9, ODN2006 5 nM) [nM] | IC50 (human TLR7; [4]) [nM] | IC50 (human TLR8; [5]) [nM] | IC50 (human TLR9; [6]) [nM] | Compound
20 | 15.1 | 257 | 1610 |  |  |  |  |  | CNCC(=O)N1CCC(c2ccc3[nH]c(-c4cc(C5CC5)ncc4F)c(C(C)C)c3c2)CC1 [Example 518, 1-(4-(2-(2-cyclopropyl-5-fluoropyridin-4-yl)-3-isopropyl-1H-indol-5-yl)piperidin-1-yl)-2-(methylamino)ethan-1-one]
21 | 13.9 | 14.4 | 1640 |  |  |  |  |  | Cc1nccc(-c2[nH]c3ccc(C4CCNCC4)cc3c2C(C)C)c1Cl [Example 44, 2-(3-chloro-2-methylpyridin-4-yl)-3-isopropyl-5-(piperidin-4-yl)-1H-indole]
22 | 277 | 181 | 114 |  |  |  |  |  | CCc1c(-c2ccnc(N)c2)[nH]c2ccc(C3CCNCC3)cc12 [Example 69, 4-(3-ethyl-5-(piperidin-4-yl)-1H-indol-2-yl) pyridin-2-amine]
23 | 3.1 | 3.8 | 343 |  |  |  |  |  | COCCN1CCC(c2ccc3[nH]c(-c4cc(C)nc(C)c4)c(C(C)C)c3c2)CC1 [Example 325, 2-(2,6-dimethylpyridin-4-yl)-3-isopropyl-5-(1-(2-methoxyethyl)piperidin-4-yl)-1H-indole]
24 | 75.9 | 255 | 12900 |  |  |  |  |  | Cc1cc(-c2[nH]c3ccc(C4CCN(C(=O)CCCN(C)C)CC4)cc3c2C(C)C)cc(C)n1 [Example 111, 4-(dimethylamino)-1-(4-(2-(2,6-dimethylpyridin-4-yl)-3-isopropyl-1H-indol-5-yl)piperidin-1-yl)butan-1-one]
25 | 22.9 | 10.9 | 1680 |  |  |  |  |  | Cc1cc(-c2[nH]c3ccc(C4CCN(Cc5cc(C)on5)CC4)cc3c2C(C)C)cc(C)n1 [Example 443, 3-((4-(2-(2,6-dimethylpyridin-4-yl)-3-isopropyl-1H-indol-5-yl)piperidin-1-yl)methyl)-5-methylisoxazole]
26 | 4.9 | 6 | 680 |  |  |  |  |  | Cc1cc(-c2[nH]c3ccc(C4CCN(CC(=O)N5CC(F)(F)C5)CC4)cc3c2C(C)C)cc(C)n1 [Example 215, 1-(3,3-difluoroazetidin-1-yl)-2-(4-(2-(2,6-dimethylpyridin-4-yl)-3-isopropyl-1H-indol-5-yl)piperidin-1-yl)ethan-1-one]
27 | 4.5 | 4.7 | 4400 |  |  |  |  |  | Cc1cc(-c2[nH]c3ccc(C4CCN(CC(=O)N(C)C)CC4)cc3c2C(C)C)c(F)cn1 [Example 643, 2-(4-(2-(5-fluoro-2-methylpyridin-4-yl)-3-isopropyl-1H-indol-5-yl)piperidin-1-yl)-N,N-dimethylacetamide]
28 | 60.4 |  |  | 18.7 | 482 |  |  |  | CCc1c(-c2ccnc(C)c2)[nH]c2ccc(C3CCN(C(=O)[C@@H]4CCCN4)CC3)cc12 [Example 629]
29 |  |  |  |  |  | 2.3 | 1 | 293 | C=CC(C)(O)CN1CCC(c2ccc3[nH]c(-c4cc(C)nc(C)c4)c(C(C)C)c3c2)CC1 (stereo not drawn) [Example 853, 1-(4-(2-(2,6-dimethylpyridin-4-yl)-3-isopropyl-1H-indol-5-yl)piperidin-1-yl)-2-methylbut-3-en-2-ol]
